Test results from patent US9512120B2, “Microbicidally active imidazopyridine derivatives” (Syngenta Participations AG, priority 2013, dated 2016).

Legend:
[1] = tested on: Fusarium graminearum, syn. Gibberella zeae; experiment: whole plant or invertebrate; format: in vivo; conditions: in Triticum aestivum, 144 h, read-out: control of Gibberella zeae (preventative fungicidal activity)
[2] = tested on: Thanatephorus cucumeris (Rhizoctonia solani); experiment: Thanatephorus cucumeris (Rhizoctonia solani) / liquid culture (foot rot, damping-off); format: cell-based; conditions: PDB, 24° C., 3-4 days after application, read-out: control of Thanatephorus cucumeris (inhibition of growth, photometric)
In short: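 At 200 ppm, compounds in DMSO were combined with fresh liquid-culture mycelia in PDB and kept at 24° C; photometric measurement of growth inhibition after 3-4 days.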

[3] = tested on: Puccinia recondita f. sp. Tritici; experiment: Puccinia recondita f. sp. tritici / wheat / leaf disc preventative (brown rust); format: in vivo; conditions: foliar, wheat leaf segments cv Kanzler, inoculated 1 day after application, assessed 7-9 days after application, read-out: control of Puccinia recondita f. sp. Tritici (percent disease control compared to untreated)
In short: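 Preventative test: percent disease control relative to untreated leaf segments was assessed 7-9 days post-application. Wheat (cv Kanzler) leaf discs were treated at 200 ppm and spore-inoculated 1 day afterwards. Discs were held at 19° C and 75% relative humidity under a 12/12 h light cycle.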

[4] = tested on: Mycosphaerella graminicola (Septoria tritici); experiment: Mycosphaerella graminicola (Septoria tritici) / liquid culture (Septoria blotch); format: cell-based; conditions: Zymoseptoria tritici, PDB, 24° C., 4-5 days after application, read-out: control of Mycosphaerella graminicola (inhibition of growth, photometric)
In short: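 Growth inhibition was read photometrically after 4–5 days at 24 °C. The test compound was applied at 200 ppm from DMSO solution, then PDB broth seeded with conidia taken straight from cryogenic storage was added.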

[5] = tested on: Pyrenophora teres; experiment: Pyrenophora teres / barley / leaf disc preventative (net blotch); format: in vivo; conditions: foliar, barley leaf segments cv Hasso, inoculated two days after application, assessed 5-7 days after application, read-out: control of Pyrenophora teres (disease control compared to untreated)
In short: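 Preventative leaf-disc test: 200 ppm spray, then spore inoculation after two days on barley cv Hasso segments. Incubation 20 °C, 65% relative humidity, 12 h light/12 h dark; efficacy rated against untreated checks at 5-7 days post-application.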

[6] = tested on: Puccinia recondita f. sp. Tritici; experiment: Puccinia recondita f. sp. tritici / wheat / leaf disc curative (brown rust); format: in vivo; conditions: foliar, wheat leaf segments cv Kanzler, applied 1 day after inoculation, assessed 6-8 days after application, read-out: control of Puccinia recondita f. sp. Tritici (percent disease control compared to untreated)
Procedure: Puccinia recondita f. Sp. Tritici/Wheat/Leaf Disc Curative (Brown Rust): Wheat leaf segments cv Kanzler were placed on agar in 24-well plates. The leaf segments were inoculated with a spore suspension of the fungus. The plates were stored in darkness at 19° C. and 75% relative humidity. The formulated test compound diluted in water was applied at an application rate of 200 ppm 1 day after inoculation. […] Tritici at 200 ppm when compared to untreated control leaf disks under the same conditions, which show extensive disease development: 2, 13, 16, 23, 30, 61, 75, 89, 103, 173, 174

[7] = tested on: Blumeria graminis f. Sp. Tritici (Erysiphe graminis f. Sp. Tritici); experiment: Blumeria graminis f. sp. tritici / wheat / leaf disc preventative (powdery mildew on wheat); format: in vivo; conditions: foliar, wheat leaf segments cv. Kanzler, inoculated 1 day after application, assessed 6-8 days after application, read-out: control of Blumeria graminis (percent disease control compared to untreated)
In short: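 Wheat leaf segments (cv. Kanzler) on agar sprayed with formulated compound at 200 ppm, inoculated with powdery mildew 1 day later. Held at 20 °C, 60% RH, 24 h dark then 12 h/12 h light; percent disease control versus untreated scored 6-8 days after application.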

[8] = tested on: Gaeumannomyces graminis; experiment: Gaeumannomyces graminis / liquid culture (take-all of cereals); format: cell-based; conditions: PDB, 24° C., 4-5 days after application, read-out: control of Gaeumannomyces graminis (inhibition of growth, photometric)
In short: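 Growth inhibition, measured by photometry 4-5 days post-application at 24 °C, of fungal mycelial fragments in PDB broth. Test compound applied as DMSO solution at 200 ppm.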

[9] = tested on: Botryotinia fuckeliana (Botrytis cinerea); experiment: Botryotinia fuckeliana (Botrytis cinerea) / liquid culture (gray mould); format: cell-based; conditions: Vogels broth, 24° C., 3-4 days after application, read-out: control of Botryotinia fuckeliana (inhibition of growth, photometric)
In short: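 Test compound was applied at 200 ppm in DMSO, then Vogels nutrient broth containing cryo-stored B. cinerea conidia was added. Photometric growth-inhibition reading followed after 3-4 days at 24 °C.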

[10] = tested on: Phaeosphaeria nodorum (Septoria nodorum); experiment: Phaeosphaeria nodorum (Septoria nodorum) / wheat / leaf disc preventative (glume blotch); format: in vivo; conditions: Parastagonospora nodorum, foliar, wheat leaf segments cv Kanzler, inoculated 2 days after application, assessed 5-7 days after application, read-out: control of Phaeosphaeria nodorum (percent disease control compared to untreated)
In short: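 Wheat leaf segments (cv Kanzler) on agar sprayed with compound at 200 ppm, inoculated with spores 2 days later. Incubated at 20° C., 75% relative humidity, 12/12 h light/dark; percent disease control versus untreated scored 5-7 days after application.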

[11] = tested on: Monographella nivalis (Microdochium nivale); experiment: Monographella nivalis (Microdochium nivale) / liquid culture (foot rot cereals); format: cell-based; conditions: PDB, 24° C., 4-5 days after application, read-out: control of Monographella nivalis (inhibition of growth, photometric)
In short: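 Cryostored conidia in potato dextrose broth were added to test compound dispensed from DMSO at 200 ppm. Plates were kept at 24° C, and growth inhibition was read photometrically 4-5 days after application.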

[12] = tested on: Glomerella lagenarium (Colletotrichum lagenarium); experiment: Glomerella lagenarium (Colletotrichum lagenarium) / liquid culture (anthracnose); format: cell-based; conditions: Colletotrichum orbiculare, PDB, 24° C., 3-4 days after application, read-out: control of Glomerella lagenarium (inhibition of growth, photometric)
In short: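 Test compound, delivered in DMSO at an application rate of 200 ppm, was combined with spore-containing PDB. Photometric growth-inhibition measurement followed 3-4 days of incubation at 24° C.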

[13] = tested on: Sclerotinia sclerotiorum; experiment: Sclerotinia sclerotiorum liquid culture (cottony rot / white mold); format: cell-based; conditions: PDB, 24° C., 3-4 days after application, read-out: control of Sclerotinia sclerotiorum (inhibition of growth, photometric)
In short: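 Mycelia fragments of Sclerotinia sclerotiorum in potato dextrose broth were added to compound in DMSO. Cultures incubated at 24° C; growth inhibition determined photometrically 3-4 days after application.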

[14] = tested on: Plasmopara viticola; experiment: Plasmopara viticola / grape / leaf disc preventative; format: in vivo; conditions: foliar, grape vine leaf disks, inoculated 1 day after application, assessed 6-8 days after application, read-out: control of Plasmopara viticola (percent disease control compared to untreated)
[15] = tested on: Mycosphaerella arachidis (Cercospora arachidicola); experiment: Mycosphaerella arachidis (Cercospora arachidicola) / liquid culture (early leaf spot); format: cell-based; conditions: PDB, 24° C., 4-5 days after application, read-out: control of Mycosphaerella arachidis (inhibition of growth, photometric)
In short: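 Conidia suspended in potato dextrose broth and added to test compound from DMSO solution at 200 ppm. Incubated at 24 °C; growth inhibition read photometrically 4-5 days after application.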

[16] = tested on: Pythium ultimum; experiment: Pythium ultimum / liquid culture (seedling damping off); format: cell-based; conditions: Globisporangium ultimum, potato dextrose broth, 24° C., 2-3 days after application, read-out: control of Pythium ultimum (inhibition of growth, photometric)
In short: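 Test compound in DMSO at 200 ppm was incubated with mycelia fragments and oospores in potato dextrose broth at 24 °C. Growth inhibition was read photometrically 2-3 days after application.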

[17] = tested on: Fusarium culmorum; experiment: microbe, parasite or virus in culture; format: cell-based; conditions: read-out: control of Fusarium culmorum (inhibition of growth, photometric)

Nc1ncnn1-c1nc2cnccc2n1C1CCCCC1 [Compound 2, 2-(1-cyclohexylimidazo[4,5-c]pyridin-2-yl)-1,2,4-triazol-3-amine]
pest or weed control at 20 ppm [1]: ≥ 80% | inhibition at 20 ppm [2]: ≥ 80% | pest or weed control at 200 ppm [3]: ≥ 80% | inhibition at 20 ppm [4]: ≥ 80% | pest or weed control at 200 ppm [5]: ≥ 80% | pest or weed control at 200 ppm [6]: ≥ 80% | pest or weed control at 200 ppm [7]: ≥ 80% | inhibition at 20 ppm [8]: ≥ 80% | inhibition at 20 ppm [9]: ≥ 80%

CC=Cn1c(-n2ncnc2N)nc2cnccc21 [Compound 16, 2-(1-prop-1-enylimidazo[4,5-c]pyridin-2-yl)-1,2,4-triazol-3-amine]
inhibition at 20 ppm [2]: ≥ 80% | pest or weed control at 200 ppm [5]: ≥ 80% | pest or weed control at 200 ppm [6]: ≥ 80% | melting point: 199 to 200 °C | inhibition at 20 ppm [8]: ≥ 80% | inhibition at 20 ppm [9]: ≥ 80%

CCn1c(-n2ncnc2N)nc2cncc(-c3cccnc3Cl)c21 [Compound 103, 2-[7-(2-chloropyridin-3-yl)-1-ethylimidazo[4,5-c]pyridin-2-yl]-1,2,4-triazol-3-amine]
pest or weed control at 200 ppm [10]: ≥ 80% | inhibition at 20 ppm [11]: ≥ 80% | inhibition at 20 ppm [2]: ≥ 80% | pest or weed control at 200 ppm [3]: ≥ 80% | inhibition at 20 ppm [4]: ≥ 80% | pest or weed control at 200 ppm [5]: ≥ 80% | pest or weed control at 200 ppm [6]: ≥ 80% | pest or weed control at 200 ppm [7]: ≥ 80% | inhibition at 20 ppm [8]: ≥ 80% | inhibition at 20 ppm [9]: ≥ 80% | inhibition at 20 ppm [12]: ≥ 80%

CCn1c(-n2ncnc2N)nc2cncc(-c3ccc(C(F)(F)F)cc3)c21 [Compound 30, 2-[1-ethyl-7-[4-(trifluoromethyl)phenyl]imidazo[4,5-c]pyridin-2-yl]-1,2,4-triazol-3-amine]
pest or weed control at 200 ppm [10]: ≥ 80% | inhibition at 20 ppm [2]: ≥ 80% | pest or weed control at 200 ppm [3]: ≥ 80% | pest or weed control at 200 ppm [5]: ≥ 80% | pest or weed control at 200 ppm [6]: ≥ 80% | inhibition at 20 ppm [13]: ≥ 80% | inhibition at 20 ppm [9]: ≥ 80% | inhibition at 20 ppm [12]: ≥ 80%

CCn1c(-n2ncnc2N)nc2cncc(/C(C)=N\OC/C=C/Cl)c21 [Compound 149]
pest or weed control at 200 ppm [10]: ≥ 80% | pest or weed control at 20 ppm [1]: ≥ 80% | pest or weed control at 200 ppm [14]: ≥ 80% | inhibition at 20 ppm [15]: ≥ 80% | inhibition at 20 ppm [11]: ≥ 80% | inhibition at 20 ppm [2]: ≥ 80% | pest or weed control at 200 ppm [3]: ≥ 80% | inhibition at 20 ppm [4]: ≥ 80% | pest or weed control at 200 ppm [5]: ≥ 80% | inhibition at 20 ppm [13]: ≥ 80% | inhibition at 20 ppm [16]: ≥ 80% | inhibition at 20 ppm [9]: ≥ 80% | inhibition at 20 ppm [12]: ≥ 80% | inhibition at 20 ppm [17]: ≥ 80%

CCn1c(-n2ncnc2N)nc2cncc(-c3ccccc3F)c21 [Compound 79, 2-[1-ethyl-7-(2-fluorophenyl)imidazo[4,5-c]pyridin-2-yl]-1,2,4-triazol-3-amine]
pest or weed control at 200 ppm [10]: ≥ 80% | pest or weed control at 200 ppm [14]: ≥ 80% | inhibition at 20 ppm [15]: ≥ 80% | inhibition at 20 ppm [11]: ≥ 80% | inhibition at 20 ppm [2]: ≥ 80% | pest or weed control at 200 ppm [3]: ≥ 80% | inhibition at 20 ppm [4]: ≥ 80% | pest or weed control at 200 ppm [5]: ≥ 80% | inhibition at 20 ppm [13]: ≥ 80% | inhibition at 20 ppm [16]: ≥ 80% | inhibition at 20 ppm [8]: ≥ 80% | inhibition at 20 ppm [9]: ≥ 80% | inhibition at 20 ppm [12]: ≥ 80% | inhibition at 20 ppm [17]: ≥ 80%

CCn1c(-n2ncnc2N)nc2cncc(-c3ccc(Cl)cc3F)c21 [Compound 98, 2-[7-(4-chloro-2-fluorophenyl)-1-ethylimidazo[4,5-c]pyridin-2-yl]-1,2,4-triazol-3-amine]
pest or weed control at 200 ppm [10]: ≥ 80% | pest or weed control at 20 ppm [1]: ≥ 80% | inhibition at 20 ppm [15]: ≥ 80% | inhibition at 20 ppm [11]: ≥ 80% | inhibition at 20 ppm [2]: ≥ 80% | pest or weed control at 200 ppm [3]: ≥ 80% | inhibition at 20 ppm [4]: ≥ 80% | pest or weed control at 200 ppm [5]: ≥ 80% | inhibition at 20 ppm [13]: ≥ 80% | inhibition at 20 ppm [8]: ≥ 80% | inhibition at 20 ppm [9]: ≥ 80% | inhibition at 20 ppm [12]: ≥ 80% | inhibition at 20 ppm [17]: ≥ 80%

CCn1c(-n2ncnc2N)nc2cncc(-c3cnn(C)c3)c21 [Compound 61, 2-[1-ethyl-7-(1-methylpyrazol-4-yl)imidazo[4,5-c]pyridin-2-yl]-1,2,4-triazol-3-amine]
pest or weed control at 200 ppm [10]: ≥ 80% | inhibition at 20 ppm [2]: ≥ 80% | pest or weed control at 200 ppm [3]: ≥ 80% | inhibition at 20 ppm [4]: ≥ 80% | pest or weed control at 200 ppm [5]: ≥ 80% | pest or weed control at 200 ppm [6]: ≥ 80% | pest or weed control at 200 ppm [7]: ≥ 80% | inhibition at 20 ppm [9]: ≥ 80%
